The record followed here is US20050124562A1, “Bis-quinazoline compounds for the treatment of bacterial infections” (priority 2003, published 2005).

≈ marks a conversion by molar mass, not a printed value. Like-named read-outs stand apart in the source and are kept apart here.

Series [1] deals with reconstituted bacterial DNA polymerase holoenzymes from E. coli, Y. pestis and S. pyogenes. It counts as biochemical.
The test system of series [2] is clinically important gram-positive pathogens. In words: Whole cell antibacterial (MIC) and bactericidal (MBC) activity. It counts as cell-based. Here is the method:
(§1) Representative bis-quinazolines were tested for antibacterial activity using the […] microdilution method to determine their minimum inhibitory concentrations (MICs). All compounds were tested using standard methods in accordance with NCCLS guidelines (National Committee for Clinical Laboratory Standards. 2003. Methods for dilution antimicrobial susceptibility testing for bacteria that grow aerobically. Approved Standard M-7 A-6, NCCLS, Wayne, Pa.). The bacterial strains used in the susceptibility tests were obtained from the American Type Culture Collection (ATCC) and included resistant phenotypes such as oxacillin-resistant S. aureus (ORSA) and vancomycin-resistant enterococci (VRE). The minimum bactericidal concentrations (MBCs) were determined for selected organisms. The effect of protein binding on the antibacterial activity of representative bis-quinazolines were determined by conducting MIC tests in the presence of human serum.

In series [3] the test system is S. aureus, E. faecalis, S. pyogenes and S. pneumoniae. In words: Broth microdilution MIC (NCCLS), gram-positive strains. It counts as cell-based. The method in brief: (§2)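 MICs by broth microdilution per NCCLS M-7 A-6 against ATCC strains, including ORSA and VRE; MBCs determined for selected organisms. Serum effect assessed by repeating MIC tests with human serum present.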
For orientation: In broth dilution the organism is exposed to a series of concentrations in liquid medium.

Series [4] is described as follows: Single dose toxicity study in the mouse. It counts as in vivo. Particulars: single dose IP, 2.5 to 25 mg/kg, female Swiss-Webster mice, monitored one week. Here is the method: A single dose toxicity study was conducted in the mouse prior to evaluating the compound for in vivo efficacy. 2-(6-Methoxy-4-methyl-quinazolin-2-ylamino)-3H-quinazolin-4-ol was prepared in a vehicle consisting of 10% DMSO, 10% ethanol and 80% saline that contained 3% β-cyclodextrin. The compound was administered as a single dose to the peritoneal cavity of female Swiss-Webster mice at the six concentrations (2.5, 5, 10, 15, 20 and 25 mg/kg) proposed for evaluation in the efficacy study. The mice were monitored for toxicity for one week following compound administration.

In series [5] the test system is clinically important bacterial pathogens. In words: MIC tests in the presence of human serum. It counts as cell-based. Particulars: 50% human serum. As to the method: as §1
In another series the test system is S. aureus ATCC 29213. In words: S. aureus murine intra-abdominal sepsis model. It counts as in vivo, mice. The settings on record: 25 mg/kg IP one hour post infection, MLD of S. aureus IP. Here is the method: Typically, the model involves inoculating the intra-peritoneal cavity of the mouse with the minimum lethal dose (MLD) of the test organism. The test antimicrobial agent can be administered by any route (e.g. intravenously, sub-cutaneously, oral, intraperitoneal). Early stage compounds are evaluated following intraperitoneal administration since this is considered to be relevant to systemic treatment since most of the compound will be absorbed into the bloodstream. The compound is then monitored for its ability to protect the mouse from a lethal infection with the test organism in a concentration-dependent manner. At the same time the model provides early data on the potential toxicity of a new compound.
The S. aureus murine intra-abdominal sepsis model was used to evaluate the in vivo efficacy of 2-(6-Methoxy-4-methyl-quinazolin-2-ylamino)-3H-quinazolin-4-ol. […] The animals were then monitored at frequent intervals and the numbers of mice surviving in the different treatment groups was scored and recorded in an attempt to determine the protective dose (PD50). Levofloxacin was evaluated as a positive control (0.875, 1.75, 3.125, 6.25, 12.5 and 25 mg/kg). Vehicle only and saline controls were also evaluated.

The next series concerns M. catarrhalis. In words: Broth microdilution MIC (NCCLS), M. catarrhalis. It counts as cell-based. Particulars: Moraxella catarrhalis, read-out: MIC range. The method in brief:
as §2

In series [6] the test system is efflux mutants of P. aeruginosa. The series is described as follows: Broth microdilution MIC (NCCLS), P. aeruginosa efflux mutants. The settings on record: Pseudomonas aeruginosa, read-out: MICs. It counts as cell-based. The method in brief:
as §2

Series [7] relates to efflux mutants of E. coli. The series is described as follows: Broth microdilution MIC (NCCLS), E. coli efflux mutants. It counts as cell-based. The settings on record: Escherichia coli, read-out: MICs. The method in brief:
as §2

The next series relates to H. influenzae. The series is described as follows: Broth microdilution MIC (NCCLS), H. influenzae. It counts as cell-based. Particulars: Haemophilus influenzae; some strains of H. influenzae. The method in brief: as §2
[8] abbreviates: range against some strains of S. aureus, E. faecalis, S. pyogenes and S. pneumoniae, read-out: MIC.

For `COc1ccc2nc(Nc3nc(O)c4ccccc4n3)nc(C)c2c1` [Example 9, 2-(6-Methoxy-4-methyl-quinazolin-2-ylamino)-quinazolin-4-ol], the “biochemical activity against reconstituted DNA polymerase holoenzymes” value in [1] was “demonstrated biochemical activity”. Further, the “whole cell antibacterial and bactericidal activity” value in series [2] was “potent whole cell antibacterial and bactericidal activity”. Also, the MIC in [3] lay within 0.06 to 16 µg/mL (≈ 0.18 to 48 µM). Also, the figures for the “tolerability after single dose” value in series [4] (listed as 2-(6-Methoxy-4-methyl-quinazolin-2-ylamino)-3H-quinazolin-4-ol) and in [4] (listed as 2-(6-Methoxy-4-methyl-quinazolin-2-ylamino)-3H-quinazolin-4-one) were “All mice tolerated the compound” and “well tolerated”, respectively. The “antibacterial activity in the presence of human serum” value in [5] was “activity is evident”. For the same compound, the “mice protected from lethal S. aureus infection” value in the series with S. aureus ATCC 29213 is recorded as 50%.

`COc1cccc2c(O)nc(Nc3nc(C)c4c(OC)ccc(C)c4n3)nc12.O=C(O)C(F)(F)F` [Example 91, 8-Methoxy-2-(5-methoxy-4,8-dimethyl-quinazolin-2-ylamino)-quinazolin-4-ol trifluoroacetate salt]: the MIC with M. catarrhalis (some strains of M. catarrhalis) is 2 to 64 µg/mL; in [6], 64 µg/mL; in [7], 16 to 64 µg/mL; in [3] (setting [8]) it was 0.06 to 16 µg/mL; in the series with H. influenzae it was 16 to 32 µg/mL.

For the compound `CCN(CCOc1ccc2nc(Nc3nc(C)c4cc(OC)c(OC)cc4n3)nc(O)c2c1)CCN(C)C.O=C(O)C(F)(F)F` [Example 171, 2-(6,7-Dimethoxy-4-methyl-quinazolin-2-ylamino)-6-{2[(2-dimethylamino-ethyl)-ethyl-amino]-ethoxy}-quinazolin-4-ol trifluoroacetate salt], the MIC is 2 to 64 µg/mL in the series on M. catarrhalis (some strains of M. catarrhalis); 64 µg/mL in series [6]; 16 to 64 µg/mL in series [7]; 0.06 to 16 µg/mL in series [3] (setting [8]); 16 to 32 µg/mL with H. influenzae.

Consider `COc1cc(OC)c2nc(Nc3nc(O)c4cccc(F)c4n3)nc(C)c2c1.O=C(O)C(F)(F)F` [Example 98, 2-(6,8-Dimethoxy-4-methyl-quinazolin-2-ylamino)-8-fluoro-quinazolin-4-ol trifluoroacetate salt], for which the MIC with M. catarrhalis (some strains of M. catarrhalis) is 2 to 64 µg/mL; in series [6], 64 µg/mL; in series [7], 16 to 64 µg/mL; in [3] (setting [8]), 0.06 to 16 µg/mL; with H. influenzae, 16 to 32 µg/mL.

Consider `COc1cc2nc(Nc3nc(O)c4cccc(F)c4n3)nc(C)c2cc1OC.O=C(O)C(F)(F)F` [Example 96, 2-(6,7-Dimethoxy-4-methyl-quinazolin-2-ylamino)-8-fluoro-quinazolin-4-ol trifluoroacetate salt], for which the MIC in the series with M. catarrhalis (some strains of M. catarrhalis) is 2 to 64 µg/mL; in series [6], 64 µg/mL; in series [7] it was 16 to 64 µg/mL; in series [3] (setting [8]), 0.06 to 16 µg/mL; with H. influenzae it was 16 to 32 µg/mL.

For the compound `COc1cc2nc(Nc3nc(O)c4c(OC)cccc4n3)nc(CF)c2cc1OC.O=C(O)C(F)(F)F` [Example 90, 2-(4-Fluoromethyl-6,7-dimethoxy-quinazolin-2-ylamino)-5-methoxy-quinazolin-4-ol trifluoroacetate salt], the MIC with M. catarrhalis (some strains of M. catarrhalis) was 2 to 64 µg/mL; in series [6], 64 µg/mL; in [7], 16 to 64 µg/mL; in series [3] (setting [8]), 0.06 to 16 µg/mL; with H. influenzae it was 16 to 32 µg/mL.

For `COc1cc2nc(Nc3nc(O)c4cc(OCCNCCO)ccc4n3)nc(C)c2cc1OC.O=C(O)C(F)(F)F` [Example 161, 2-(6,7-Dimethoxy-4-methyl-quinazolin-2-ylamino)-6-[2-(2-hydroxy-ethylamino)-ethoxy]-quinazolin-4-ol trifluoroacetate salt], the MIC is 2 to 64 µg/mL in the series on M. catarrhalis (some strains of M. catarrhalis); 64 µg/mL in series [6]; 16 to 64 µg/mL in series [7]; 0.06 to 16 µg/mL in series [3] (setting [8]); 16 to 32 µg/mL with H. influenzae.

In the case of `COc1ccc2nc(Nc3nc(O)c4cc(C)cc(C)c4n3)nc(C)c2c1` [Example 19, 2-(6-Methoxy-4-methyl-quinazolin-2-ylamino)-6,8-dimethyl-quinazolin-4-ol], the MIC with M. catarrhalis was 2 to 64 µg/mL (≈ 5.53 to 177 µM); in [6], 64 µg/mL (≈ 177 µM); in series [7], 16 to 64 µg/mL (≈ 44.3 to 177 µM); in series [3] it was 0.06 to 16 µg/mL (≈ 0.166 to 44.3 µM); in the series on H. influenzae it was 16 to 32 µg/mL (≈ 44.3 to 88.5 µM).

As to `COc1cc(OC)c2nc(Nc3nc(O)c4cc(OCCN5CCC(O)C5)ccc4n3)nc(C)c2c1.O=C(O)C(F)(F)F` (centres unmarked) [Example 160, 2-(6,8-Dimethoxy-4-methyl-quinazolin-2-ylamino)-6-[2-(3-hydroxy-pyrrolidin-1-yl)-ethoxy]-quinazolin-4-ol trifluoroacetate salt], the MIC in the series with M. catarrhalis (some strains of M. catarrhalis) is 2 to 64 µg/mL; in series [6] it was 64 µg/mL; in [7] it was 16 to 64 µg/mL; in series [3] (setting [8]), 0.06 to 16 µg/mL; against H. influenzae, 16 to 32 µg/mL.

`CCN(CC)CCOc1ccc2nc(Nc3nc(O)c4cccc(OC)c4n3)nc(C)c2c1.O=C(O)C(F)(F)F` [Example 115, 2-[6-(2-Diethylamino-ethoxy)-4-methyl-quinazolin-2-ylamino]-8-methoxy-quinazolin-4-ol trifluoroacetate salt]: the MIC with M. catarrhalis (some strains of M. catarrhalis) was 2 to 64 µg/mL; in series [6] it was 64 µg/mL; in series [7] it was 16 to 64 µg/mL; in series [3] (setting [8]), 0.06 to 16 µg/mL; with H. influenzae it was 16 to 32 µg/mL.

With `COc1cc2nc(Nc3nc(O)c4cc(OCCN5CCC(N)C5)ccc4n3)nc(C)c2cc1OC` (centres unmarked) [Example 163, 6-[2-(3-Amino-pyrrolidin-1-yl)-ethoxy]-2-(6,7-dimethoxy-4-methyl-quinazolin-2-ylamino)-quinazolin-4-ol], the MIC in the series with M. catarrhalis was 2 to 64 µg/mL (≈ 4.07 to 130 µM); in series [6] it was 64 µg/mL (≈ 130 µM); in series [7], 16 to 64 µg/mL (≈ 32.5 to 130 µM); in series [3], 0.06 to 16 µg/mL (≈ 0.122 to 32.5 µM); against H. influenzae, 16 to 32 µg/mL (≈ 32.5 to 65.1 µM).

With `COc1cc2nc(Nc3nc(O)c4cc(OCCN5CCCC5)ccc4n3)nc(C)c2cc1OC.O=C(O)C(F)(F)F` [Example 148, 2-(6,7-Dimethoxy-4-methyl-quinazolin-2-ylamino)-6-(2-pyrrolidin-1-yl-ethoxy)-quinazolin-4-ol trifluoroacetate salt], the MIC in the series with M. catarrhalis (some strains of M. catarrhalis) is 2 to 64 µg/mL; in series [6], 64 µg/mL; in series [7], 16 to 64 µg/mL; in series [3] (setting [8]), 0.06 to 16 µg/mL; against H. influenzae it was 16 to 32 µg/mL.
